In PubChem BioAssay (NCI):
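Five compound concentrations were applied to cells in 96-well plates for 48 hours; endpoints were derived by simple linear interpolation of the resulting dose-response curve. TGI denotes the concentration required for complete inhibition of growth.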

Experiments:
Assay in all cases: NCI anticancer screen, dose series, 48 h
[1] = system: A498 renal
[2] = system: A549 NSCLC
[3] = system: ACHN renal
[4] = system: BT-549 breast
[5] = system: CAKI-1 renal
[6] = system: CCRF-CEM leukemia
[7] = system: COLO 205 colon
[8] = system: EKVX NSCLC
[9] = system: HCC-2998 colon
[10] = system: HCT-116 colon
[11] = system: HCT-15 colon
[12] = system: HL-60(TB) leukemia
[13] = system: HOP-62 NSCLC
[14] = system: HOP-92 NSCLC
[15] = system: HS 578T breast
[16] = system: HT29 colon
[17] = system: IGROV1 ovarian
[18] = system: K-562 leukemia
[19] = system: LOX IMVI melanoma
[20] = system: MALME-3M melanoma
[21] = system: MCF7 breast
[22] = system: MDA-MB-435
[23] = system: NCI-H23 lung
[24] = system: NCI/ADR-RES ovarian
[25] = system: OVCAR-4 ovarian
[26] = system: OVCAR-5 ovarian
[27] = system: OVCAR-8 ovarian
[28] = system: PC-3 prostate
[29] = system: RPMI-8226 leukemia
[30] = system: SF-268 CNS
[31] = system: SF-295 CNS
[32] = system: SF-539 CNS
[33] = system: SK-MEL-2 melanoma
[34] = system: SK-MEL-5 melanoma
[35] = system: SK-OV-3 ovarian
[36] = system: SN12C renal
[37] = system: SNB-19 CNS
[38] = system: SW-620 colon
[39] = system: TK-10 renal
[40] = system: UACC-257 melanoma
[41] = system: UACC-62 melanoma
[42] = system: UO-31 renal

For `N=c1c2ccccc2nc2oc3ccccc3n12`, the TGI [1] was > 100 µM, the TGI [2] was > 100 µM and the TGI [3] was > 100 µM. For the same compound, the TGI [4] was > 100 µM, the TGI [5] was > 100 µM and the TGI [6] was > 100 µM. The TGI [7] was > 100 µM, the TGI [8] was 29.9 µM and the TGI [9] was > 100 µM. For the same compound, the TGI [10] was > 100 µM, the TGI [11] was > 100 µM and the TGI [12] was > 100 µM. The TGI [13] was 88.2 µM, the TGI [14] was 80.6 µM and the TGI [15] was 60.3 µM. The TGI [16] was > 100 µM, the TGI [17] was > 100 µM and the TGI [18] was > 100 µM. The TGI [19] was > 100 µM, the TGI [20] was > 100 µM and the TGI [21] was > 100 µM. For the same compound, the TGI [22] was > 100 µM, the TGI [23] was > 100 µM and the TGI [24] was > 100 µM. For the same compound, the TGI [25] was 61.4 µM, the TGI [26] was > 100 µM and the TGI [27] was > 100 µM. For the same compound, the TGI [28] was > 100 µM, the TGI [29] was > 100 µM and the TGI [30] was 28 µM. For the same compound, the TGI [31] was > 100 µM, the TGI [32] was > 100 µM and the TGI [33] was > 100 µM. For the same compound, the TGI [34] was 69.5 µM, the TGI [35] was > 100 µM and the TGI [36] was > 100 µM. For the same compound, the TGI [37] was > 100 µM, the TGI [38] was > 100 µM and the TGI [39] was 87.3 µM. The TGI [40] was > 100 µM, the TGI [41] was > 100 µM and the TGI [42] was > 100 µM.
